Results: US20130156750A1, “Compositions and Methods for Using Human YKL-40 to Treat Acute Lung Injury” (YALE UNIVERSITY, priority 2010, published 2013)

Assays:
[1] = system: BEAS-2B cells; test: In vitro oxygen exposure of BEAS-2B cells, YKL-40 expression by real-time RT-PCR; type: cell-based, human; conditions: 95% O2, pretreatment 10 mM 1 hour before oxygen exposure, FIG. 1G
Description: mRNA levels were assessed by real-time reverse transcriptase-polymerase chain reaction, as previously described. […] The sequences for the primers that were used were obtained from Primer Bank online (pga.mgh.harvard.edu/primerbank) Human bronchial epithelial cell line BEAS-2B cells (ATCC, Rockville, Md.) were incubated in complete bronchial epithelial basal medium (Lonza, Walkersville, Md.). They were placed in an airtight modular incubator chamber (Billups-Rothenberg, Del Mar, Calif.), which had been flushed continuously with 95% O2/5% CO2 until the oxygen level inside the chamber reached approximately 95%. The incubator chamber was then placed in a tissue culture incubator at 37° C., the O2 inside the chamber was replaced every 24 hours, and the cells were harvested at the desired time points (24-72 h). The responses in these cells were compared with events in cells incubated in 5% CO2 and air. In select experiments, the cells were incubated with N-acetyl-L-cysteine (Sigma, St. Louis, Mo.), which was added at a dose of 10 mM 1 hour before oxygen exposure, or its vehicle control.

[2] = system: mice exposed to 100% O2; test: Hyperoxic acute lung injury (100% O2 exposure) in mice; type: in vivo
Excerpt: BRP-39^−/− mice were generated and used as previously described (Lee et al., 2009, J Exp Med 206; 1149-1166). The mice were generated on a mixed 129/C57BL/6 background and subsequently bred for more than 10 generations onto a C57BL/6 background. Transgenic mice in which human YKL-40 was tightly and inducibly overexpressed (CC10-rtTA-tTS-YKL-40) in a lung-specific manner were generated with constructs and approaches that have been previously described. (Lee et al., 2009, J Exp Med 206:1149-1166). Mice that lacked BRP-39 and produced YKL-40 only in pulmonary epithelial cells (CC10-rtTA-tTS-YKL-40/BRP-39^−/−) were generated by breeding the CC10-rtTA-tTS-YKL-40 and BRP-39^−/− mice. Mice with caspase-3-null mutations were kindly provided by Dr. Flavell (Dept. of Immunobiology, Yale University School of Medicine). Animal protocols were approved by the Yale University Institutional Animal Care and Use Committee, the guidelines of which were followed for all experiments.
Mice (4-6 wk old) were placed in cages in an airtight Plexiglas chamber (55×40×50 cm), as described previously (Waxman et al., 1998, J Clin Invest 101:1970-1982; Ward et al., 2000, Am J Respir Cell Mol Biol 22:535-542; Wang et al., 2003, J Biol Chem 278:31226-31232). Throughout the experiment, they were given free access to food and water. Oxygen levels were constantly monitored by an oxygen sensor, which was connected to a relay switch incorporated into the oxygen supply circuit. The inside of the chamber was kept at atmospheric pressure, and mice were exposed to a 12-hour light-dark cycle. […]
Bronchoalveolar lavage (BAL; 50 μg) fluids and/or lung lysates were subjected to immunoblot analysis with antibodies against inhibitor of caspase-activated deoxyribonuclease (Chemicon International, Billerica, Mass.), caspase-3 (Cell Signaling Technology, Danvers, Mass.) or β-tubulin (Santa Cruz Biotechnology, Inc.), and the polyclonal rabbit antiserum against BRP-39, as noted above. These samples were fractionated by polyacrylamide gel electrophoresis, transferred to membranes, and evaluated as described previously (Kang et al., 2007, J Exp Med 204:1083-1093).
The levels of BRP-39 in BAL or lung lysates were evaluated by ELISA with an anti-BRP-39 rabbit polyclonal IgG for capture and biotinylated anti-BRP-39, followed by horseradish peroxidase-labeled streptavidin (GE Healthcare, Piscataway, N.J.) for detection. […] The levels of BAL fluid CXCL-1 and CCL-2 were measured by ELISA with commercial kits (R&D Systems, Minneapolis, Minn.), as directed by the manufacturer.
DNA fragmentation and cell death were evaluated with terminal deoxynucleotidyl transferase-mediated dUTP nick end labeling (TUNEL) assays, as previously described. […]

Molecule	effect on hyperoxia inhibition of YKL-40 expression [1]	survival in 100% oxygen ([2]; BRP-39−/− mice with epithelial-targeted transgenic YKL-40 (CC10-rtTA-tTS-YKL-40/BRP-39−/−), FIG. 5A)	augmented hyperoxia-induced responses (permeability, protein leak, tissue and BAL inflammation, KC/CXCL-1 and MCP-1/CCL2, TUNEL-positive cell death, caspase-3 activation) ([2]; BRP-39−/− mice with epithelial-targeted transgenic YKL-40, 100% O2, FIGS. 5B-5H)	survival in 100% O2 ([2]; CC10-rtTA-tTS-YKL-40 mice on WT genetic background, FIG. 5I)	alveolar capillary permeability alterations, protein leak, tissue and BAL inflammation, KC/CXCL-1 and MCP-1/CCL2 production, TUNEL-positive cell death, caspase-3 activation ([2]; YKL-40 Tg animals on WT genetic background, 100% O2, FIGS. 5B-5H)
CC(=O)N[C@@H](CS)C(=O)O [N-acetyl-L-cysteine]	abrogated the YKL-40-inhibiting effects of hyperoxia	–	–	–	–
YKL-40: human homolog of BRP-39, chitinase-like protein; inducibly overexpressed as a transgene in mouse lung epithelium	–	enhanced the survival	restored to levels comparable to those in WT animals	enhanced	diminished
